Experimental data reported in US20100041089A1, “IMPROVED METHOD FOR DETECTING CHEMICAL […]” (priority 2006, published 2010).

Tested on: yeast genes (expressed mRNA)
Experiment: DNA chip measurement of expressed mRNA of yeast genes after culture with a toxic chemical substance
Assay type: cell-based, Saccharomyces cerevisiae S288C
Details: for level of expressed mRNA in the presence of chemical substance / level in the absence of chemical substance: cultured two hours with the chemical substance; for The level of expressed mRNA in the presence of chemical substance/The level of expressed mRNA in the absence of chemical substance: cultured two hours with substance
How it was run: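 S. cerevisiae S288C grown at 25 °C in YPD, exposed in log phase for 2 h to a toxicant at growth-inhibiting, non-lethal concentration. Cy3/Cy5-labelled cDNA from poly(A) mRNA hybridized to whole-genome chip at 65 °C >12 h. Ratio to untreated control, ≥2 significant.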

CCCCCCCCCCCCc1ccc(S(=O)(=O)[O-])cc1.[Na+] [(17), Sodium dodecylbenzosulfonate]
1.4: The level of expressed mRNA in the presence of chemical substance/The level of expressed mRNA in the absence of chemical substance (yeast gene YOL083W) | level of expressed mRNA in the presence of chemical substance / level in the absence of chemical substance (yeast gene YPL150W) | The level of expressed mRNA in the presence of chemical substance/The level of expressed mRNA in the absence of chemical substance (yeast gene YPL196W) | The level of expressed mRNA in the presence of chemical substance/The level of expressed mRNA in the absence of chemical substance (yeast gene YPL206C)
1.6: The level of expressed mRNA in the presence of chemical substance/The level of expressed mRNA in the absence of chemical substance (yeast gene YNL115C) | The level of expressed mRNA in the presence of chemical substance/The level of expressed mRNA in the absence of chemical substance (yeast gene YOL082W)
1.8: The level of expressed mRNA in the presence of chemical substance/The level of expressed mRNA in the absence of chemical substance (yeast gene YNL156C)
1.1: The level of expressed mRNA in the presence of chemical substance/The level of expressed mRNA in the absence of chemical substance (yeast gene YNL074C) | level of expressed mRNA in the presence of chemical substance / level in the absence of chemical substance (yeast gene YNL253W) | level of expressed mRNA in the presence of chemical substance / level in the absence of chemical substance (yeast gene YNL276C) | The level of expressed mRNA in the presence of chemical substance/The level of expressed mRNA in the absence of chemical substance (yeast gene YOL036W) | The level of expressed mRNA in the presence of chemical substance/The level of expressed mRNA in the absence of chemical substance (yeast gene YOL131W) | level of expressed mRNA in the presence of chemical substance / level in the absence of chemical substance (yeast gene YOR022C) | level of expressed mRNA in the presence of chemical substance / level in the absence of chemical substance (yeast gene YOR138C) | level of expressed mRNA in the presence of chemical substance / level in the absence of chemical substance (yeast gene YPL168W) | The level of expressed mRNA in the presence of chemical substance/The level of expressed mRNA in the absence of chemical substance (yeast gene YPL222W) | level of expressed mRNA in the presence of chemical substance / level in the absence of chemical substance (yeast gene YPR172W)
1.3: The level of expressed mRNA in the presence of chemical substance/The level of expressed mRNA in the absence of chemical substance (yeast gene YOL071W) | The level of expressed mRNA in the presence of chemical substance/The level of expressed mRNA in the absence of chemical substance (yeast gene YOL117W) | level of expressed mRNA in the presence of chemical substance / level in the absence of chemical substance (yeast gene YOR267C) | The level of expressed mRNA in the presence of chemical substance/The level of expressed mRNA in the absence of chemical substance (yeast gene YPR151C)
0.9: level of expressed mRNA in the presence of chemical substance / level in the absence of chemical substance (yeast gene YNL063W) | The level of expressed mRNA in the presence of chemical substance/The level of expressed mRNA in the absence of chemical substance (yeast gene YNL281W) | level of expressed mRNA in the presence of chemical substance / level in the absence of chemical substance (yeast gene YOR253W) | level of expressed mRNA in the presence of chemical substance / level in the absence of chemical substance (yeast gene YPR148C)
0.7: level of expressed mRNA in the presence of chemical substance / level in the absence of chemical substance (yeast gene YNR051C) | level of expressed mRNA in the presence of chemical substance / level in the absence of chemical substance (yeast gene YPL188W)
2.7: The level of expressed mRNA in the presence of chemical substance/The level of expressed mRNA in the absence of chemical substance (yeast gene YOL150C)
0.8: level of expressed mRNA in the presence of chemical substance / level in the absence of chemical substance (yeast gene YNL058C) | level of expressed mRNA in the presence of chemical substance / level in the absence of chemical substance (yeast gene YNL194C) | level of expressed mRNA in the presence of chemical substance / level in the absence of chemical substance (yeast gene YOR087W) | level of expressed mRNA in the presence of chemical substance / level in the absence of chemical substance (yeast gene YOR325W)
0.6: level of expressed mRNA in the presence of chemical substance / level in the absence of chemical substance (yeast gene YNL176C)
1.0: The level of expressed mRNA in the presence of chemical substance/The level of expressed mRNA in the absence of chemical substance (yeast gene YNL234W) | The level of expressed mRNA in the presence of chemical substance/The level of expressed mRNA in the absence of chemical substance (yeast gene YNR068C) | level of expressed mRNA in the presence of chemical substance / level in the absence of chemical substance (yeast gene YPL180W) | level of expressed mRNA in the presence of chemical substance / level in the absence of chemical substance (yeast gene YPL225W) | The level of expressed mRNA in the presence of chemical substance/The level of expressed mRNA in the absence of chemical substance (yeast gene YPR023C) | level of expressed mRNA in the presence of chemical substance / level in the absence of chemical substance (yeast gene YPR049C) | level of expressed mRNA in the presence of chemical substance / level in the absence of chemical substance (yeast gene YPR146C)
1.2: level of expressed mRNA in the presence of chemical substance / level in the absence of chemical substance (yeast gene YNL200C) | The level of expressed mRNA in the presence of chemical substance/The level of expressed mRNA in the absence of chemical substance (yeast gene YOL162W) | level of expressed mRNA in the presence of chemical substance / level in the absence of chemical substance (yeast gene YPL005W) | level of expressed mRNA in the presence of chemical substance / level in the absence of chemical substance (yeast gene YPL152W)
2.1: level of expressed mRNA in the presence of chemical substance / level in the absence of chemical substance (yeast gene YOL026C) | The level of expressed mRNA in the presence of chemical substance/The level of expressed mRNA in the absence of chemical substance (yeast gene YPL087W)
1.5: The level of expressed mRNA in the presence of chemical substance/The level of expressed mRNA in the absence of chemical substance (yeast gene YOL047C) | The level of expressed mRNA in the presence of chemical substance/The level of expressed mRNA in the absence of chemical substance (yeast gene YOR197W) | level of expressed mRNA in the presence of chemical substance / level in the absence of chemical substance (yeast gene YPL221W)
1.7: The level of expressed mRNA in the presence of chemical substance/The level of expressed mRNA in the absence of chemical substance (yeast gene YNL092W) | The level of expressed mRNA in the presence of chemical substance/The level of expressed mRNA in the absence of chemical substance (yeast gene YNL305C) | The level of expressed mRNA in the presence of chemical substance/The level of expressed mRNA in the absence of chemical substance (yeast gene YOL032W) | The level of expressed mRNA in the presence of chemical substance/The level of expressed mRNA in the absence of chemical substance (yeast gene YOR019W)
